Where “and” joins values, the source holds several entries; their conditions need not be identical. Identical values can stand only once.
Assays:
[1] = test system: Varroa mites; test: Efficacy of BPQ B against Varroa mites on honeybees fed treated sucrose solution; format: in vivo; settings: summary statement
Method: Example 6 - Toxicity of BPQ B to Varroa mites on honeybees when fed treated sucrose solution
To estimate the percentage efficacy of BPQ at different concentrations in sucrose solution
A total of 20 newly emerged Varroa infested bees were placed in hoarding cages. The cages were prepared as described in Section 1.0, except that the air vents were reduced in size using parafilm to prevent the Varroa mites escaping during the test period. The mean(±se) number of mites per 20 bees was estimated prior to commencement of the experiment and an additional 5 mites per cage were added. (mean±se = 10.6±0.33). This was carried out by collecting adult female mite from drone pupae, placing them in an eppendorf tube and then releasing them into the cages.
The treatment solution was made by dissolving BPQ B in solvent, followed by two aqueous serial dilutions producing a concentration of 500µg/mL and 5 µg/mL. From the latter, further serial dilutions were carried with sucrose solution producing the following concentrations: • 0.5µg/mL. (C1-C3) • 0.05µg/mL. (D1-D3) • 0.005µg/mL. (E1-E3) • 0.0005µg/mL. (F1-F3) • 0.00005µg/mL (G1-G3)
(§1) Three replicates were established at each concentration plus a control group which were only fed sugar syrup. All cages were placed in the incubator at 32°C and monitored on a daily basis for the number of mites and number of bees knocked down. At the end of five day treatment period, the percentage efficacy of the treatment was estimated by treating bees in all cages with Apistan (Trade Mark of Vita (Europe) Ltd. Apistan contains fluvalinate which is a synthetic pyrethroid. % efficacy = mites knocked from treatment/total mites (treatment+Apistan)*100 [formula]

[2] = Solubility in water; format: physicochemical
[3] = test system: adult honeybees (Apis mellifera); test: Toxicity of BPQ A to honeybees when fed in a sugar syrup solution (hoarding cages, 16 days); format: in vivo; settings: summary statement over all the studies
Method: We have assessed the toxicity of BPQ to adult honeybees (Apis mellifera) using the 50 mg/mL liquid solution, BPQ A, under laboratory conditions
Example 1 - Toxicity of BPQ A to honeybees when fed in a sugar syrup solution (50mL liquid at a concentration of 50mg BPQ/mL)
Hoarding cages consisted of plastic tumblers (600mL) with an opening diameter of 84mm. The tumblers were paired with standard plastic petri-dishes and glass scintillation vials. To allow sufficient ventilation, 33 holes, approximately 3mm in diameter were made in the sides of each tumbler, in addition to two 30mm x 30mm holes fitted with nylon mesh. A circular hole was cut out of the bottom of the cup, which produced an opening large enough to allow a lidded scintillation vial to pass through the hole. Two holes were drilled into the lids of the scintillation vials with a 1mm bit and these vials were filled a 1:1 sugar solution, together with different concentrations of the solvent and product. […]
Three replicates were analysed at each concentration of BPQ A and solvent as outlined below, together with a control group which were only fed sugar and water throughout the experimental period.
Bees were maintained for 16 days at 32°C. Bees were fed additional food as required throughout the experimental period and the general behaviour and survival of the test bees were recorded on a daily basis. […]

[4] = test system: Varroa mites; test: Efficacy of BPQ B against Varroa mites on honeybees sprayed with an aqueous solution; format: in vivo; settings: summary statement
Method: (§2) Example 7 - Toxicity of BPQ B to Varroa mites on honeybees when sprayed with an aqueous solution of the active ingredient
To estimate the percentage efficacy of BPQ B at different concentrations when sprayed as an aqueous solution onto adult bees
(§3) A total of 20 newly emerged Varroa infested bees were placed in hoarding cages. The cages were prepared as described in Section 1.0, except that the air vents were reduced in size using parafilm to prevent the Varroa mites escaping during the test period. The mean(±se) number of mites per 20 bees was estimated prior to commencement and an additional 10 mites per cage were added. Mites were collected and introduced as described above. The treatment solution was made by dissolving BPQ B in solvent, followed by two aqueous serial dilutions producing a concentration of 500µg/mL and 5µg/mL. From the latter, further serial dilutions were carried in water producing the following concentrations: • 0.5µg/mL. (C1-C3) • 0.05µg/mL. (D1-D3) • 0.005µg/mL. (E1-E3) • 0.0005µg/mL. (F1-F3) • 0.00005µg/mL (G1-G3)
as §1, with “sprayed with water only. All test groups were” for “only”, “10mL of 1:1 sucrose:water solution and” for “sugar syrup. All cages were”, “Apistan.” for “Apistan (Trade Mark of Vita (Europe) Ltd. Apistan contains fluvalinate which is a synthetic pyrethroid.”

[5] = test system: honeybees; test: Survival of bees sprayed with aqueous solutions of BPQ; format: in vivo, Apis mellifera; settings: 20 bees per cage
Method: as §2, §3
as §1, with “sprayed with water only. All test groups were” for “only”, “10mL of 1:1 sucrose:water solution and” for “sugar syrup. All cages were”, “Apistan.” for “Apistan (Trade Mark of Vita (Europe) Ltd. Apistan contains fluvalinate which is a synthetic pyrethroid.”

[6] = test system: mammals; settings: dosages many thousands of times higher than those in the invention; cited from earlier work
[7] = 0.00005µg/mL (g1-g3) aqueous solution sprayed
[8] = 0.0005µg/mL (f1-f3) aqueous solution sprayed
[9] = 0.005µg/mL (e1-e3) aqueous solution sprayed
[10] = 0.05µg/mL (d1-d3) aqueous solution sprayed
[11] = 0.5µg/mL (c1-c3) aqueous solution sprayed

## CC(C)(C)[C@H]1CC[C@H](CC2=C(O)C(=O)c3ccccc3C2=O)CC1 [BPQ, buparvaquone]
[1]
  effective, application via bee feed route: 82%
[2]
  solubility in water: completely insoluble
[3]
  harm to adult bees and larvae: harmless
[4]
  effective, topical application: ~40%
[5]; [7]
  Bees remaining: 18 and 17 and 20
  Survival rate on bees, Day 1: 20
  Survival rate on bees, Day 2: 19 and 20
  Survival rate on bees, Day 3: 19 and 17 and 20
  Survival rate on bees, Day 4: 19 and 17 and 20
  Survival rate on bees, Day 5: 19 and 17 and 20
  Survival rate on bees, Day 6: 18 and 17 and 20
[5]; [8]
  Bees remaining: 20 and 19 and 18
  Survival rate on bees, Day 1: 20
  Survival rate on bees, Day 2: 20 and 19 and 18
  Survival rate on bees, Day 3: 20 and 19 and 18
  Survival rate on bees, Day 4: 20 and 19 and 18
  Survival rate on bees, Day 5: 20 and 19 and 18
  Survival rate on bees, Day 6: 20 and 19 and 18
[5]; [9]
  Bees remaining: 19 and 20
  Survival rate on bees, Day 1: 20
  Survival rate on bees, Day 2: 20
  Survival rate on bees, Day 3: 19 and 20
  Survival rate on bees, Day 4: 19 and 20
  Survival rate on bees, Day 5: 19 and 20
  Survival rate on bees, Day 6: 19 and 20
[5]; [10]
  Bees remaining: 20 and 19
  Survival rate on bees, Day 1: 20
  Survival rate on bees, Day 2: 20 and 19
  Survival rate on bees, Day 3: 20 and 19
  Survival rate on bees, Day 4: 20 and 19
  Survival rate on bees, Day 5: 20 and 19
  Survival rate on bees, Day 6: 20 and 19
[5]; [11]
  Bees remaining: 19 and 20
  Survival rate on bees, Day 1: 20
  Survival rate on bees, Day 2: 20 and 19
  Survival rate on bees, Day 3: 20 and 19
  Survival rate on bees, Day 4: 19 and 20
  Survival rate on bees, Day 5: 19 and 20
  Survival rate on bees, Day 6: 19 and 20
[6]
  neurotoxic effect: no neurotoxic effect whatsoever
